In turn, `N#Cc1nn(-c2c(Cl)cc(C(F)(F)F)cc2Cl)cc1C1C=CCCCC1` (stereo not given) showed a melting point of 106 to 107 °C.
To `Cc1cc(OCCCC(C)(C)C(=O)O)c(C)c(C)c1OCc1ccccc1` belongs 105 to 107 °C; to `CCOC(=O)C(O)C1OC(c2ccccc2Cl)c2cc(Cl)ccc2N(C(C)C)C1=O` (stereo not given), 126 to 128 °C.
The compound `CCOC(=O)C(CC)c1ccc(N2Cc3ccccc3C2=N)cc1` (stereo not given) came in with a melting point of 157 to 159 °C.
As for `CC1CCCN(C[C@@H]2COc3ccc(S(C)(=O)=O)cc3O2)C1` (stereo not given in full), the figure is 159 °C.
`NS(=O)(=O)c1ccc(-c2nc(-c3cnn4c(C(F)(F)F)cc(-c5ccc(C(F)(F)F)cc5)nc34)no2)cc1` yielded a melting point of 292 °C.
Turning to `Cc1ccc(NCCNS(C)(=O)=O)cc1O`, the melting point was 145 °C.
`CCC(=O)n1c(=O)[nH]c(=O)n1C(=O)CC` had a melting point of 208 °C.
As for `COC(=O)C(C)[C@H]1CC[C@H]2[C@@H]3CCC4=CC(=O)CC[C@]4(C)[C@H]3CC[C@]12C` (stereo not given in full), the figure is 175 to 177 °C; as for `Nc1nc2c(ncn2OCC(O)CO)c(=O)[nH]1` (stereo not given), 252 to 253 °C; as for `Cn1ncc2c1CCC(=CO)C2=O`, 93 to 95 °C.
On to `CCC(OC)C(=O)Nc1ccc(C2=NNC(=O)CC2C)cc1` (stereo not given), for which the melting point was 151 to 152 °C.
As for `CCOC(=O)c1cnc2c3cc(OC)ccc3ccn2c1=O`, the figure is 184 to 186 °C.
In turn, `CSCc1cc(C(F)(F)F)ccc1N` yielded a melting point of 65.5 to 67.5 °C.
`COc1cc(COc2ccccc2O)cc(OC)c1`: the melting point is 55 to 57 °C.
As for `COC(=O)CC[C@H](NC(=O)c1ccc(C#Cc2cnc3nc(NC(=O)C(C)(C)C)nc(O)c3c2)s1)C(=O)OC`, the figure is 228 to 230 °C.
As for `Cc1ccc(OCc2c(F)cccc2F)c(N)n1`, the figure is 121 to 123 °C.
As for `COc1ccc(/C(=C/C=C/C(=O)Oc2ccc([N+](=O)[O-])cc2)C(C)C)cc1`, the figure is 95 to 96.5 °C; as for `CCCCn1c(O)cc(C)c(C#N)c1=O`, 218 to 222 °C.
In the case of `CNC(=O)n1nc(Oc2ccc([N+](=O)[O-])cc2C(F)(F)F)c(C)c1C`, the melting point lay within 113 to 115 °C.
To `O=C(O)CCCc1cc2nc(Cl)ccc2n1S(=O)(=O)c1ccc2ncsc2c1` belongs 178 °C; to `CCOC(=O)COc1c(C(C)C)cc(C(O)(C(F)(F)F)C(F)(F)F)cc1C(C)C`, 91 to 93 °C; to `CC(C)(C)OC(=O)CCC1CCC(N)CC1` (stereo not given), 39 to 40 °C.
Regarding `Cc1nc(C#N)ccc1O`, the melting point was 201 to 205 °C.
As to `CC[C@@]12C[C@@](C)(O)[C@](O)(c3ccccc3)C[C@H]1CCc1cc(OCC(C)(C)O)ccc12`, the melting point fell in the range of 190 to 193 °C.
Compound `O=C(NCC1(O)CCCCCC1)c1cc(-c2ccc(Cl)c(C(=O)O)n2)ccc1Cl` came in with a melting point of 146 to 149 °C.
To `COc1c(CCC(=O)O)cccc1Oc1ccccc1C` belongs 71 to 75 °C.
Regarding `O=CCC[C@@H]1[C@@H](OCc2ccc(-c3ccccc3)cc2)CO[C@@H]1c1cccnc1`, the melting point lay in the range of 204 to 205 °C.
As for `COC(=O)CC(=O)C[C@@H]1[C@@H](N2C(=O)c3ccccc3C2=O)C(=O)N1C(=O)C(=O)OC`, the figure is 130 to 132 °C; as for `CCCCCCc1ccc(C(=O)N2CCOCC2)cc1[N+](=O)[O-]`, 68.5 to 71.5 °C; as for `COC(=O)c1ccc(C(=O)OC)c(Nc2ccccc2)c1`, 85 to 87 °C.
To `N#Cc1c[nH]cc1-c1ccccc1Cl` belongs 138 to 139 °C.
The compound `OC1CCN(c2ccccc2)C12CCN(C1CC3CCCCCC3C1)CC2` (stereo not given) displayed a melting point of 219 °C.
To `O=C(CCCCCCNC(=O)c1ccc(C(F)(C(=O)Nc2cccc3cccnc23)C(=O)Nc2cccc3cccnc23)cc1)NO` belongs 120 to 122 °C; to `N=C(N)NCCCCOc1cccc2c1NC(=O)C(CC(=O)O)C2` (stereo not given), 207 to 210 °C; to `Cc1c2c(c(-c3ccc(F)cc3)c3c4c(ccc13)OCO4)CNC2=O`, 293 to 295 °C.
To `Cc1ccccc1-c1cn(-c2ccccc2)c2ncnc(N)c12` belongs 181 to 182 °C.
To `COC(=O)c1nc(C)c(-c2ccncc2)s1` belongs 121 to 123 °C; to `CCOc1ccc(C23CC2CN(C=O)C3)cc1` (stereo not given), 48 to 51 °C.
`CC(=O)N(C)c1cccc(-c2nc(=O)c3ccccc3s2)n1`: the melting point lay in the range of 218 to 220 °C.
To `CCCc1c2c(cc3c(=O)cc(C(=O)OCC)oc13)C(O)C(C(=O)OCC)(C(=O)OCC)O2` (stereo not given) belongs 131 to 133 °C.
To `Cc1cc2c(c3ccc(=O)[nH]c13)OC(CC(=O)[C@@H](C)N)C2` (stereo not given in full) belongs 222 to 225 °C.
As to `O=C(O)c1ccc(Cl)c(S(=O)(=O)NC2CCCCCCC2)c1`, the melting point turned out to be 134 °C.
Compound `O=C1OCCC1C1CCc2c1[nH]c1ccccc21` (stereo not given) gave a melting point of 155 to 157 °C.
On to `COc1ccc2c(c1)C(c1ccccc1)NC(=O)N2CC1CC1` (stereo not given), for which the melting point turned out to be 133 °C.
Regarding `CCOC(=O)c1c(Cn2cnnc2)nc2cc(OC)c(OC)cc2c1-c1ccc(OC)c(OC)c1`, the melting point was 226 to 227 °C.
Compound `CCOC(=O)C(C)OCc1cc2nc(C(F)(F)F)ccc2n1S(=O)(=O)c1ccc2ncsc2c1` (stereo not given) came in with a melting point of 96 °C.
As for `Cc1ccc(OCc2ccccc2)c(C(=O)O)c1C(=O)O`, the figure is 200 to 203 °C.
To `Cc1ccc([C@@H]2Sc3cc(COC(c4ccccc4)(c4ccccc4)c4ccccc4)ccc3N(CCN(C)C)C(=O)[C@@H]2O)cc1` belongs 110 to 114 °C; to `COC(=O)COc1cc2c(c3c1cc(C)n3Cc1ccccc1)CCC2`, 135 to 138 °C.
To `O=Cc1cccnc1Oc1ccc(F)cc1` belongs 61 to 62 °C; to `CCCCCCCCCCOS(=O)(=O)NC(=O)Nc1c(C(C)C)cccc1C(C)C`, 133 to 135 °C.
In turn, `Cc1nc(-c2cccc(-n3cnc4cc(I)ccc43)c2)cs1` had a melting point of 163 to 164 °C.
For the compound `CCCCN1CCCC1=NC(=O)Nc1cccc(Cl)c1`, the melting point fell in the range of 94 to 96 °C.
Compound `ClC1c2ccccc2-c2ccccc21` showed a melting point of 87 to 89 °C.
As for `Cc1nc(-n2ccc(CCc3ccccc3)cc2=O)sc1C(=O)NCc1ccccc1`, the figure is 149 to 150 °C.
To `CC(C)(C)c1cc(C(=O)O)cc(I)c1O` belongs 178 °C; to `CONC(=O)c1ccccc1OCc1ccc(Cl)cc1Cl`, 100 to 102 °C; to `COc1cc(SC2SCC(OC(C)=O)C(OC(C)=O)C2OC(C)=O)cc(OC)c1OC` (stereo not given), 101 °C.
Take `CCOC(=O)NCC(C)C(NC(=O)OCC)NC(=O)OCC` (stereo not given): the melting point lay in the range of 138 to 140 °C.
As for `O=COCCCN1C(=O)c2ccccc2C1=O`, the figure is 68 to 70 °C; as for `CC(=O)n1nc(-c2cccc([N+](=O)[O-])c2)n2nc(C)cc12`, 207 to 210 °C.
Take `COC(=O)c1nc(Br)cc(Br)c1O`: the melting point was 181 to 183 °C.
Consider `Cc1c(C(=O)N[C@H](C)[C@](O)(Cn2cncn2)c2ccc(F)cc2F)cnn1-c1c(Cl)cccc1Cl`, for which the melting point fell in the range of 226 to 227 °C.
For the compound `FC(F)(F)c1cccc(CCc2nnc(-c3ccc4ncoc4c3)o2)c1`, the melting point fell in the range of 117 to 118 °C.
To `O=C(N[C@H](Cc1ccc(C(F)(F)F)cc1)[C@@H](O)c1ccc(F)cc1)c1ccc2c(c1)OCO2` (racemic) belongs 180 to 181 °C.
Regarding `CCOC(=O)C(Cc1cccc(OCC(F)(F)F)c1)C(=O)c1ccc(F)cc1` (stereo not given), the melting point was in the range of 48 to 49 °C.
As for `COCc1nc(C(=O)OC)c(C(=O)OC)n1Cc1ccc([N+](=O)[O-])cc1`, the figure is 107 to 110 °C.
In turn, `Cn1cc(C(=O)O)c(=O)c2cc3cc(F)c(N4CCN(O)CC4)cc3nc21` displayed a melting point of 290 °C.
To `O=C(Nc1ccccc1)N1CCC(C2Oc3ccccc3Cn3cccc32)CC1` (stereo not given) belongs 167 to 170 °C; to `CS(=O)(=O)Nc1ccc(/C=C\COCCCCCCNCC(O)c2ccc(O)c(CO)c2)cc1` (stereo not given), 113 to 116 °C.
`COc1cc(C=CC=O)ccc1OCc1nc(-c2ccco2)oc1C` came in with a melting point of 125 to 126 °C.
The compound `Nc1ccc(F)c(NC(=O)C(F)(F)F)c1` had a melting point of 116 to 118 °C.
As for `CCOC(=O)Cc1c(C)n(Cc2cccc(C(F)(F)F)c2)c2ccc(OC)cc12`, the figure is 95 to 97 °C.
As to `CCOC(=O)c1cc(O)c2ccc3c(c2c1-c1cc(OC)c(OC)c(OC)c1)OCO3`, the melting point is 151 to 152 °C.
To `CCC(C)(C)Nc1c(NCc2ccc(C)c(Cl)c2)c(=O)c1=O` belongs 261 to 263 °C; to `COC(=O)C(c1ccc(Cl)cc1)c1c(Cl)cc(-n2ncc(=O)n(C)c2=O)cc1Cl` (stereo not given), 173 °C; to `N#CC1=C(C2CCNCC2)Nc2n[nH]cc2C1c1cccc2nonc12` (stereo not given), 216 °C.
As for `CCOP(=O)(OCC)C1CCn2c(=O)c(=O)[nH]c3cc(C(F)(F)F)cc1c32` (stereo not given), the figure is 250 °C.
As for `CCCCn1c(=O)c2cc(OC)c(OC)cc2c2nnc3cc4c(cc3c21)OCO4`, the figure is 299 °C; as for `O=c1ccc(S(=O)(=O)c2cc3ccccc3o2)n[nH]1`, 210 to 211 °C.
`CC(=O)Nc1nc(CCc2ccc(C#N)cc2)cs1`: the melting point was 205 to 206 °C.
`CCCOCc1cc2c(-c3ccc(OCc4ccccc4)cc3)c(CC)c3cccc1n32` registered a melting point of 78 to 80 °C.
Regarding `COc1ccc(-c2nc(CCl)nc3cc(OC)c(OC)cc23)cc1OC`, the melting point fell in the range of 183 to 184 °C.
`Cc1ccc(NC(=O)C(C)(C)C)c(-c2cccc(Br)n2)c1` showed a melting point of 120 to 126 °C.
To `CCCCCCCc1ccc(NS(=O)(=O)c2ccc(N3CCNC3=O)cc2)cc1` belongs 188 to 190 °C; to `O=S(CCCCCl)Cc1ccc(Cl)c(Cl)c1` (stereo not given), 155 to 158 °C.
The compound `O=CC1CC(n2ccc(=O)[nH]c2=O)OC1COC(c1ccccc1)(c1ccccc1)c1ccccc1` (stereo not given) yielded a melting point of 100 °C.
The compound `CCCC(=O)c1cnc2c(OC)csc2c1Cl` came in with a melting point of 76 to 78 °C.
As for `CCOc1ccc(-c2ccc3c(c2)C=C(C(=O)OC)CCN3)cc1`, the figure is 157 to 158 °C.

Broadly, the melting point is the temperature of the solid-liquid transition.

The values are drawn from a melting point compilation (Tetko et al.; mined from patent text by program, amines drawn as free bases though some values may be those of a salt).
